Measurements published in US11152578B2, “Sulfonium salts of DNTT and related compounds as soluble photocleavable precursors for organic semiconductors for use in organic field-effect transistors” (Clap Co., Ltd., priority 2017, dated 2021).
Like-named read-outs stand apart in the source and are kept apart here.

Legend:
[1] = Solubility in various solvents at 25° C.; format: physicochemical; settings: organic solvent or mixture
Procedure: The solubility of the compound 1Aa at 25° C. was compared to the solubility of compound 2Aa in various solvents.

[2] = background statement, no solvent given; cited from earlier work
[3] = CH3CN, read-out: solubility in CH3CN
[4] = CHCl3, read-out: solubility in CHCl3
[5] = DMF, read-out: solubility in DMF

With `CCC(C)(C)c1ccc(-[s+]2c3cc4ccccc4cc3c3sc4cc5ccccc5cc4c32)cc1.F[B-](F)(F)F` (stereo not shown) [Compound 1Aa] as the compound, how does the solubility [1, 3] read?
Its solubility is 5000 µg/mL.

And the solubility [1, 4]?
The solubility was 5000 µg/mL.

What about the solubility [1, 5] of the same compound?
Its solubility is 8000 µg/mL.

What does the source list for `c1ccc2cc3c(cc2c1)sc1c2cc4ccccc4cc2sc31` [Compound 2Aa, dinaphtho[2,3-b:2′,3′-f]thieno[3,2-b]thiophene]?
solubility (in words) [2]: low solubility; solubility [1, 3]: < 1000 µg/mL; solubility [1, 4]: < 1000 µg/mL; solubility [1, 5]: < 1000 µg/mL
